Measured values: patent US20230203081A1, “LINCOSAMIDE ANTIBIOTICS AND USES THEREOF” (President and Fellows of Harvard College, priority 2020, published 2023)
≈ marks a conversion by molar mass, not a printed value. Where two headings read alike, the source gives them in different places.

Tests used:
Assay type in all cases: cell-based
[1] = tested on: S. pneumoniae ATCC 49619; test: MIC (broth microdilution or agar dilution, CLSI); details: Streptococcus pneumoniae, read-out: MIC
Description: (§1) Minimum inhibitory concentrations (MICs) were determined by broth microdilution method or agar dilution method following the Clinical and Laboratory Standards Institute guidelines. Standard bacterial strains were obtained from American Type Culture Collection (ATCC). Other bacterial strains were obtained from hospitals and commercial sources, so noted in Table 11. […] Specialized procedures were employed for streptococcal and anaerobic strains. All other bacterial strains were sub-cultured on blood agar plates (tryptic soy agar with 5% sheep blood, Hardy Diagnostics) and incubated overnight at 35° C. […] Suspensions were further diluted to obtain a final inoculum of 5×10^5 CFU/mL for broth microdilution experiments.

[2] = tested on: E. coli LptD; test: MIC (broth microdilution or agar dilution, CLSI); details: Escherichia coli, read-out: MIC
Description: as §1

[3] = tested on: S. aureus ATCC 29213; test: MIC (broth microdilution or agar dilution, CLSI); details: Staphylococcus aureus, read-out: MIC
Description: as §1

[4] = tested on: K. oxytoca Clinical; test: MIC (broth microdilution or agar dilution, CLSI); details: Klebsiella oxytoca, read-out: MIC
Description: as §1

[5] = tested on: E. coli ATCC 25922; test: MIC (broth microdilution or agar dilution, CLSI); details: Escherichia coli, ATCC25922, read-out: MIC
Description: as §1

[6] = tested on: E. faecalis ATCC 29212; test: MIC (broth microdilution or agar dilution, CLSI); details: Enterococcus faecalis, read-out: MIC
Description: as §1

[7] = tested on: S. pyogenes ATCC 19615; test: MIC (broth microdilution or agar dilution, CLSI); details: Streptococcus pyogenes, read-out: MIC
Description: as §1

[8] = tested on: A. baumannii ATCC 19606; test: MIC (broth microdilution or agar dilution, CLSI); details: Acinetobacter baumannii, ATCC19606; A. baumannii ATCC 19606; read-out: MIC
Description: as §1

[9] = tested on: E. coli ΔTolC; test: microbe, parasite or virus in culture; details: Escherichia coli
Description: as §1

[10] = tested on: E. faecium Clinical VRE; test: MIC (broth microdilution or agar dilution, CLSI); details: Enterococcus faecium; E. faecium Clinical VRE; read-out: MIC
Description: (§2) Minimum inhibitory concentrations (MICs) were determined by broth microdilution method or agar dilution method following the Clinical and Laboratory Standards Institute guidelines. Standard bacterial strains were obtained from American Type Culture Collection (ATCC). Other bacterial strains were obtained from hospitals and commercial sources, so noted in Table 11. Before the start of the MIC experiment, standard and test compound stock solutions were prepared in dimethyl sulfoxide (DMSO, Aldrich D2650) at a stock concentration of 5,120 μg/mL. The compound concentration range typically employed for each experiment was 128-0.06 μg/mL (2.5% final DMSO concentration). Clindamycin was used as a comparator in all experiments and each experiment was performed in triplicate. Specialized procedures were employed for streptococcal and anaerobic strains. All other bacterial strains were sub-cultured on blood agar plates (tryptic soy agar with 5% sheep blood, Hardy Diagnostics) and incubated overnight at 35° C. Organisms were suspended in cation-adjusted Mueller-Hinton broth (CaMHB, BD 212322) and optical density was adjusted to 0.5 McFarland standard. Suspensions were further diluted to obtain a final inoculum of 5×10^5 CFU/mL for broth microdilution experiments.

[11] = tested on: S. aureus cErmA; test: MIC (broth microdilution or agar dilution, CLSI); details: Staphylococcus aureus; S. aureus cErmA; read-out: MIC
Description: as §2

[12] = tested on: P. aeruginosa ATCC 27853; test: MIC (broth microdilution or agar dilution, CLSI); details: Pseudomonas aeruginosa, ATCC27853; P. aeruginosa ATCC 27853; read-out: MIC
Description: as §2

[13] = tested on: S. aureus ATCC BAA-1707 (MRSA); test: MIC (broth microdilution or agar dilution, CLSI); details: Staphylococcus aureus; S. aureus HAV#016, ATCC BAA-1707; MRSA; read-out: MIC
Description: as §1

[14] = tested on: broad panel of different clinical isolates; test: microbe, parasite or virus in culture
Description: as §1

[15] = tested on: S. aureus BAA 977 iErmA; test: microbe, parasite or virus in culture; details: Staphylococcus aureus, BAA-977 / MRSA
Description: as §1

[16] = tested on: S. aureus MMX 3035 cErmA; test: MIC (broth microdilution or agar dilution, CLSI); details: Staphylococcus aureus, MMX3035CERMA; S. aureus HAV#031, MMX 3035; cErmA; read-out: MIC
Description: as §1

[17] = ATCC49619, S. pneumoniae ATCC 49619
[18] = ATCC29213, S. aureus ATCC 29213
[19] = ATCC29212, E. faecalis ATCC 29212
[20] = ATCC19615, S. pyogenes ATCC 19615
[21] = ATCC49619, S. pneumoniae HAV#003, ATCC 49619
[22] = ATCC29213, S. aureus HAV#001, ATCC 29213, MP-549
[23] = ATCC29212, E. faecalis HAV#005, ATCC 29212
[24] = ATCC19615, S. pyogenes HAV#004, ATCC 19615
[25] = Enterococcus faecium, VRE, E. faecium HAV#326, Clinical

CSC1O[C@H]([C@H](NC(=O)[C@H]2NC[C@@H]3C[C@H](CC4CC4)CCO[C@H]32)[C@H](C)Cl)C(O)[C@@H](O)[C@H]1O (some centres unmarked) [FSA-10-10-001]
MIC [1, 17]: 0.125 µg/mL (≈ 0.254 µM) | MIC ([2]; E. coli LptD): 0.5 µg/mL (≈ 1.01 µM) | MIC [3, 18]: 0.125 µg/mL (≈ 0.254 µM) | MIC ([4]; K. oxytoca Clinical): 8 µg/mL (≈ 16.2 µM) | MIC ([5]; E. coli ATCC 25922): 4 µg/mL (≈ 8.11 µM) | MIC [6, 19]: 0.06 µg/mL (≈ 0.122 µM) | MIC [7, 20]: 0.125 µg/mL (≈ 0.254 µM) | MIC [8]: 16 µg/mL (≈ 32.5 µM) | MIC ([9]; E. coli ΔTolC): 0.25 µg/mL (≈ 0.507 µM) | MIC [10]: 2 µg/mL (≈ 4.06 µM) | MIC [11]: 4 µg/mL (≈ 8.11 µM) | MIC [12]: > 128 µg/mL

CSC1O[C@H]([C@H](NC(=O)[C@H]2NC[C@@H]3C[C@H](CCF)CCO[C@H]32)[C@H](C)Cl)C(O)[C@@H](O)[C@H]1O (some centres unmarked) [FSA-10-09-099]
MIC [1, 17]: 0.25 µg/mL (≈ 0.515 µM) | MIC ([2]; E. coli LptD): 4 µg/mL (≈ 8.25 µM) | MIC [3, 18]: 0.25 µg/mL (≈ 0.515 µM) | MIC ([4]; K. oxytoca Clinical): 32 µg/mL (≈ 66 µM) | MIC ([5]; E. coli ATCC 25922): 32 µg/mL (≈ 66 µM) | MIC [6, 19]: 0.5 µg/mL (≈ 1.03 µM) | MIC [7, 20]: 0.5 µg/mL (≈ 1.03 µM) | MIC [8]: > 128 µg/mL | MIC ([9]; E. coli ΔTolC): 1 µg/mL (≈ 2.06 µM) | MIC [10]: 16 µg/mL (≈ 33 µM) | MIC [11]: 32 µg/mL (≈ 66 µM) | MIC [12]: > 128 µg/mL

CCC[C@@H]1C[C@@H](C(=O)N[C@@H]([C@H]2O[C@H](SC)[C@H](O)[C@@H](O)[C@H]2O)[C@@H](C)O)N(C)C1 [Lincomycin]
MIC [1, 21]: 1 µg/mL (≈ 2.46 µM) | MIC ([2]; E. coli HAV#040, LptD): 64 µg/mL (≈ 157 µM) | MIC [3, 22]: 0.5 µg/mL (≈ 1.23 µM) | MIC ([4]; K. oxytoca HAV#450, Clinical): > 256 µg/mL | MIC [13]: 0.25 µg/mL (≈ 0.615 µM) | MIC ([5]; E. coli HAV#006, ATCC 25922): > 256 µg/mL | MIC [6, 23]: 32 µg/mL (≈ 78.7 µM) | MIC [7, 24]: 0.5 µg/mL (≈ 1.23 µM) | MIC ([9]; E. coli HAV#038, ΔTolC): 128 µg/mL (≈ 315 µM) | MIC [14, 25]: 16 µg/mL (≈ 39.4 µM)

CN(C)c1ccc(O)c2c1C[C@H]1C[C@H]3[C@H](N(C)C)C(O)=C(C(N)=O)C(=O)[C@@]3(O)C(O)=C1C2=O [Minocycline]
MIC ([2]; E. coli HAV#040, LptD): 0.25 µg/mL (≈ 0.546 µM) | MIC [3, 22]: 0.25 µg/mL (≈ 0.546 µM) | MIC [13]: 0.25 µg/mL (≈ 0.546 µM) | MIC ([5]; E. coli HAV#006, ATCC 25922): 0.5 µg/mL (≈ 1.09 µM) | MIC [6, 23]: 4 µg/mL (≈ 8.74 µM) | MIC ([9]; E. coli HAV#038, ΔTolC): ≤ 0.0125 µg/mL | MIC [14, 25]: 0.125 µg/mL (≈ 0.273 µM) | MIC [15]: 0.25 µg/mL (≈ 0.546 µM)

CS(=O)(=O)c1ccc([C@@H](O)[C@@H](CO)NC(=O)C(Cl)Cl)cc1 [Thiamphenicol]
MIC [16]: 32 µg/mL (≈ 89.8 µM) | MIC [1, 21]: 2 µg/mL (≈ 5.61 µM) | MIC ([2]; E. coli HAV#040, LptD): 32 µg/mL (≈ 89.8 µM) | MIC [3, 22]: 32 µg/mL (≈ 89.8 µM) | MIC ([4]; K. oxytoca HAV#450, Clinical): 64 µg/mL (≈ 180 µM) | MIC ([5]; E. coli HAV#006, ATCC 25922): 64 µg/mL (≈ 180 µM) | MIC [6, 23]: 16 µg/mL (≈ 44.9 µM) | MIC [7, 24]: 4 µg/mL (≈ 11.2 µM) | MIC ([9]; E. coli HAV#038, ΔTolC): 16 µg/mL (≈ 44.9 µM) | MIC ([14]; Enterococcus faecalis, VRE, E. faecalis HAV#251, Clinical VRE): 8 µg/mL (≈ 22.5 µM) | MIC ([14]; Klebsiella pneumoniae, K. pneumoniae HAV#041, Clinical, KPC): > 64 µg/mL
